Test results: US11845773B2, “Trehalose analogues” (Central Michigan University, priority 2016, dated 2023)

Experiments:
Msmeg [1] = test: Metabolic labeling of Msmeg with TMM reporters 1-6 (CuAAC, SPAAC, tetrazine ligation or one-step); details: 4 h; for concentration of labeling saturation: Msmeg and Cglut, range up to 250 μM, flow cytometry (FIG. 62)
[2] = test system: Msmeg PG-AGM and extractable lipids fractions; test: Cellular fractionation and fluorescence analysis of labeled Msmeg; assay type: cell-based, Mycobacterium smegmatis; details: for distribution of fluorescence between PG-AGM and extractable lipids fractions: Msmeg 4 h, O-AlkTMM 50 μM, N-AlkTMM 250 μm, 6-TreAz 25 μM, CHCl3/CH3OH extraction
Procedure: Cellular fractionation and analysis of labeled Msmeg. 10 mL Msmeg cultures were grown in 7H9 liquid medium in the presence of O-AlkTMM (50 μM), N-AlkTMM (250 μm) or left untreated in 15 mL conical tubes. A higher concentration of N-AlkTMM was used to maximize labeling efficiency. In parallel, cultures were grown in the presence of 6-TreAz (25 μM) or left […] untreated. Cells were incubated with shaking for 4 h at 37° C. until reaching late-log phase, then pelleted by centrifugation and washed with PBSB three times as described above. For O- and N-AlkTMM-labeled cells and their untreated control, the above-described click chemistry procedure was carried out with Az488 at a reaction volume of 500 μL. For 6-TreAz-labeled cells and their untreated control, the above-described click chemistry procedure was carried out with Alk488 at a reaction volume of 500 μL. After the click reactions, cells were pelleted by centrifugation and washed with PBSB three times as described above. Aliquots were removed and resuspended in PBS 1× for measurement of OD600 (for normalization of fluorescence values) and analysis by flow cytometry as shown in FIG. 13. The remainder of the cells were resuspended in 1 mL HPLC grade CH3OH and transferred to a glass screw-cap culture tube containing 2 mL CHCl3 and equipped with a stir bar. The CHCl3/CH3OH (2:1) cell suspension was stirred overnight to accomplish separation of the soluble extractable lipids from the insoluble PG-AGM material. The insoluble material was pelleted by centrifugation (3,600 rpm, 10 minutes, room temperature) and washed two times with CHCl3/CH3OH (2:1). The CHCl3/CH3OH (2:1) supernatants containing soluble extractable lipids were combined in a 20 mL glass scintillation vial and dried by rotary evaporation. Both fractions were subjected to TLC analysis as described in FIG. 12 to confirm separation of the extractable lipids from the PG-AGM material. Both fractions were then resuspended in 1 mL 5% aqueous tetrabutylammonium hydroxide (TBAH) in glass screw-cap culture tubes, sealed and then stirred overnight at 100° C. to saponify and solubilize the samples. Next, the samples were cooled to room temperature and 200 μL aliquots were transferred to a black flat-bottom 96-well plate.

Ag85 = test: Effect of ebselen on AlkTMM labeling in Msmeg (Ag85 dependency); assay type: cell-based, Mycobacterium smegmatis; details: ebselen 50 μg/mL 8 h; for decrease of labeling upon treatment of Msmeg with ebselen: then reporter 4 h (O-AlkTMM 50 μM; N-AlkTMM 100 μM)
Procedure: Effect of ebselen on AlkTMM labeling in Msmeg. Msmeg was cultured in 7H9 liquid medium in 96-well plates in the presence of ebselen (50 μg/mL) for 8 hours, after which the chemical reporter (O-AlkTMM, 50 μM; N-AlkTMM, 100 μM; 6-TreAz, 25 μM) was added and the cells were incubated for another 4 hours. Cells were subjected to CuAAC and analyzed by flow cytometry as described above.

Escherichia coli = test: AlkTMM labeling specificity, E. coli; assay type: cell-based; details: species specificity, flow cytometry and microscopy
Msmeg [3] = test: Competition of AlkTMM labeling in Msmeg with unlabeled probes; assay type: cell-based, Mycobacterium smegmatis; details: competitor 250, 1000, 5000 μM, 4 h; O-AlkTMM 50 μM with O—C7TMM, N-AlkTMM 100 μM with N—C7TMM
Procedure: Competition of AlkTMM labeling in Msmeg. For O-AlkTMM competition experiments, Msmeg was cultured in 7H9 liquid medium in 96-well plates in the presence of O-AlkTMM (50 μM) and its unlabeled version, O—C7TMM, at concentrations of 250, 1000, and 5000 μM (or without competitor) for 4 h. For N-AlkTMM competition experiments, Msmeg was cultured in 7H9 liquid medium in the presence of N-AlkTMM (100 μM) and its unlabeled version, […], at concentrations of 250, 1000, and 5000 μM (or without competitor) for 4 h. Cells were subjected to CuAAC and analyzed by flow cytometry as described above.

[4] = test system: M. smegmatis mc2155 (Msmeg); test: Metabolic labeling of Msmeg with AlkTMM probes, CuAAC with Az488, flow cytometry / microscopy; assay type: cell-based, Mycobacterium smegmatis; design: concentration at which labeling was saturable: unit not given here; details: for labeling after only a few seconds of culture time / labeling features in time-course fluorescence microscopy: Msmeg; for change in labeling between log- and stationary-phase Msmeg: growth phase dependence; for labeling of Msmeg: species specificity, flow cytometry and microscopy
C. glutamicum = test: AlkTMM labeling specificity, C. glutamicum; assay type: cell-based, Corynebacterium glutamicum; details: species specificity, flow cytometry and microscopy
[5] = test system: SugABC-LpqY trehalose transporter; test: Labeling in Msmeg wild type versus Msmeg ΔsugC; assay type: cell-based, Mycobacterium smegmatis; details: Msmeg wild type vs ΔsugC
Msmeg [6] = test: Growth of Msmeg during treatment with probes; assay type: cell-based, Mycobacterium smegmatis; details: up to 250 μM
Procedure: Plates were incubated at 37° C. […] Tubes were incubated at 37° C.

Bacillus subtilis = test: AlkTMM labeling specificity, B. subtilis; assay type: cell-based; details: species specificity, flow cytometry and microscopy
[7] = Water solubility of reporters
Cglut = test: Metabolic labeling of Cglut with TMM reporters 4-6; details: flow cytometry

With “6-O-(10-undecynoyl)-α,α-D-trehalose [O-AlkTMM-C11]” the “dependence of labeling on acyl chain length” value (Msmeg [1]; Msmeg, 50 μM reporter, azido-488 CuAAC, flow cytometry) was “small increase”.
With `[N-]=[N+]=NC[C@H]1O[C@H](O[C@H]2O[C@H](CO)[C@@H](O)[C@H](O)[C@H]2O)[C@H](O)[C@@H](O)[C@@H]1O` [6-TreAz, reference compound] the “distribution of fluorescence between PG-AGM and extractable lipids fractions” value [2] was “signal exclusively in the extractable lipids fraction” and the “effect of ebselen treatment on Msmeg labeling” value (Ag85; then 6-TreAz 25 μM 4 h) was “did not reduce”.
In the case of `C#CCCCCC(=O)NCC1O[C@H](O[C@H]2OC(CO)[C@@H](O)C(O)[C@H]2O)C(O)[C@@H](O)[C@@H]1O` (stereo partly drawn) [N-AlkTMM, N-(6-heptynoyl)-6-amino-6-deoxy-α,α-D-trehalose], the “labeling of E. coli” value (Escherichia coli) is reported as “no labeling above background”, the “competition of labeling signal by unlabeled version of the probe” value (Msmeg [3]) is reported as “Dose-dependent competition of signal” and the “distribution of fluorescence between PG-AGM and extractable lipids fractions” value [2] is reported as “signal only in the extractable lipids fraction”. The “labeling after only a few seconds of culture time” value [4] was “significant labeling could be detected”, the “labeling features in time-course fluorescence microscopy” value [4] was “intensely fluorescent septa in dividing cells, highly polar labeling for short pulses, and diffuse surface labeling for longer pulses” and the “S/N reached under the conditions tested” value ([4]; Msmeg 14 h, 1-250 μm probe, Az488 CuAAC, flow cytometry) was > 150. For the same molecule, the “signal lower than O-AlkTMM at the same concentrations” value ([4]; Msmeg 14 h, flow cytometry) was “approximately 10 fold”, the “change in labeling between log- and stationary-phase Msmeg” value [4] was “significant decrease” and the “labeling of Msmeg” value [4] was “strong labeling of the cell surface”. The “labeling of C. glutamicum” value (C. glutamicum) was “strong labeling of the cell surface”, the “decrease of labeling upon treatment of Msmeg with ebselen” value (Ag85) was ~85% and the “dependence of incorporation on trehalose transporter SugABC-LpqY” value [5] was “not dependent on the trehalose transporter SugABC-LpqY”. The “growth impairment of Msmeg” value (Msmeg [6]) was “no growth impairment” and the “labeling of B. subtilis” value (Bacillus subtilis) was “no labeling above background”.
With `C#CCCCCC(=O)OCC1O[C@H](O[C@H]2OC(CO)[C@@H](O)C(O)[C@H]2O)C(O)[C@@H](O)[C@@H]1O` (stereo partly drawn) [O-AlkTMM, 6-O-(6-heptynoyl)-α,α-D-trehalose] the “labeling of E. coli” value (Escherichia coli) was “no labeling above background”, the “competition of labeling signal by unlabeled version of the probe” value (Msmeg [3]) was “Dose-dependent competition of signal” and the “distribution of fluorescence between PG-AGM and extractable lipids fractions” value [2] was “nearly all of the fluorescence from O-AlkTMM treated Msmeg was present in the PG-AGM fraction”. For the same molecule, the “fraction of probe reacting with TMM to form alkyne-labeled TDM” value ([2]; estimated from extractable lipids fluorescence, FIG. 7) was ≤ 10%, the “labeling after only a few seconds of culture time” value [4] was “significant labeling could be detected” and the “labeling features in time-course fluorescence microscopy” value [4] was “intensely fluorescent septa in dividing cells, highly polar labeling for short pulses, and diffuse surface labeling for longer pulses”. For the same molecule, the “concentration at which labeling was saturable” value ([4]; Msmeg 14 h, Az488 CuAAC, flow cytometry) was 50, the “signal-to-noise ratio (S/N) of labeling” value ([4]; Msmeg cultured 14 h, Az488 CuAAC, flow cytometry) was > 20 and the “change in labeling between log- and stationary-phase Msmeg” value [4] was “significant decrease”. The “labeling of Msmeg” value [4] was “strong labeling of the cell surface”, the “labeling of C. glutamicum” value (C. glutamicum) was “strong labeling of the cell surface” and the water solubility [7] was “conveniently water-soluble”. For the same molecule, the “decrease of labeling upon treatment of Msmeg with ebselen” value (Ag85) was “approximately 70%”, the “dependence of incorporation on trehalose transporter SugABC-LpqY” value [5] was “not dependent on the trehalose transporter SugABC-LpqY” and the “growth impairment of Msmeg” value (Msmeg [6]) was “no growth impairment”. The “labeling of B. subtilis” value (Bacillus subtilis) was “no labeling above background”.
In the case of `C#CCCC(=O)OCC1O[C@H](O[C@H]2OC(CO)[C@@H](O)C(O)C2O)C(O)C(O)[C@@H]1O` (stereo partly drawn) [O-AlkTMM-C5, 6-O-(4-pentynoyl)-α,α-D-trehalose], the water solubility [7] is reported as “conveniently water-soluble”.
In the case of `[N-]=[N+]=NCCCCCCCCCC(=O)OCC1O[C@H](O[C@H]2OC(CO)[C@@H](O)C(O)C2O)C(O)C(O)[C@@H]1O` (stereo partly drawn) [O-AzTMM-C10, 6-O-(10-azidodecanoyl)-α,α-D-trehalose], the “concentration of labeling saturation” value (Msmeg [1]) is reported as “approximately 25 μM”.
With `O=C(CCCCCCCCCNC(=S)Nc1ccc2c(c1)C(=O)OC21c2ccc(O)cc2Oc2cc(O)ccc21)OC[C@H]1O[C@H](O[C@H]2O[C@H](CO)[C@@H](O)[C@H](O)[C@H]2O)[C@H](O)[C@@H](O)[C@@H]1O` [O-FITC-TMM, 6-O-(10-[(fluorescein-5-yl)thioureido]decanoyl)-α,α-D-trehalose] the “incorporation into Cglut relative to Msmeg” value (Cglut) was “much more efficiently than in Msmeg” and the “concentration of labeling saturation” value (Msmeg [1]) was ≥ 100 µM.
In the case of `O=C(CCCCCCCCCNC(=O)OC1CC/C=C/CCC1)OC[C@H]1O[C@H](O[C@H]2O[C@H](CO)[C@@H](O)[C@H](O)[C@H]2O)[C@H](O)[C@@H](O)[C@@H]1O` (stereo partly drawn) [O-TCO-TMM, 6-O-(10-{N—[(E)-cylcooct-4-en1yloxy]carbonyl}aminodecanoyl)-α,α-D-trehalose], the “incorporation into Cglut relative to Msmeg” value (Cglut) is reported as “much more efficiently than in Msmeg” and the “concentration of labeling saturation” value (Msmeg [1]) is reported as “approximately 25 μM”.
